Columns and labels:
[1] = system: aptamer I (DNA, G4) AGTCCGTGGGTAGGGCGGGTTGGGGGTGACT; test: peroxidase activity titration (ABTS-H2O2, A421); details: 20 mM K+, 200 mM Na+; 5.45 mM ABTS, 25 mM HEPES pH 8.0, 0.05% Triton X-100, 1% DMSO, 0.1 µM hemin
[2] = system: aptamer II (DNA, G4) AGTCCGTGGTTGGTGTGGTTGGGGTGACT; test: peroxidase activity (ABTS-H2O2); details: 20 mM K+, 200 mM Na+; 25 mM HEPES pH 8.0, 0.05% Triton X-100, 1% DMSO; 1 µM hemin plus 1 µM aptamer
[3] = system: aptamer 4 (DNA, G4) AGGGACGGGAAGAA/AAAATGTGGAGGGT; test: UV-Vis, hyperchromicity of hemin Soret band; details: 20 mM K+, 200 mM Na+; 25 mM HEPES pH 7.4, 0.05% Triton X-100, 1% DMSO; 1 µM complex
[4] = system: aptamer III (DNA, G4) AGGGACGGGAAGAAAAGGAAAATCCTTAAAATGTGGAGGGT; test: UV-Vis, hyperchromicity of hemin Soret band; details: 20 mM K+, 200 mM Na+; 25 mM HEPES pH 7.4, 0.05% Triton X-100, 1% DMSO; 1 µM complex; about 2 x affinity of aptamer 4
[5] = system: aptamer 1 (DNA, G4) GGGTAGGGCGGGTTGGG; test: peroxidase activity titration (ABTS-H2O2, A421); details: 20 mM K+, 200 mM Na+; 5.45 mM ABTS, 25 mM HEPES pH 8.0, 0.05% Triton X-100, 1% DMSO, 0.1 µM hemin

C=CC1=C(C)C2=Cc3c(C=C)c(C)c4[n]3[Fe]([Cl])[n]3c(c(C)c(CCC(=O)O)c3=CC3=NC(=C4)C(C)=C3CCC(=O)O)=CC1=N2
Kd [1]: 194 ± 10 nM
binding [2]: yes
binding [3]: yes
binding [4]: yes
Kd [5]: 258 ± 7 nM

Reference: paper PMC2663033 (2009)
